Test results from US11649227B2, “Allosteric chromenone inhibitors of phosphoinositide 3-kinase (PI3K) for the treatment of disease” (Petra Pharma Corporation, priority 2020, dated 2023).

These compounds were tested against human full length PIK3CA Wild-type (p110α/p85α complex) (Homo sapiens (Human), UniProt P42336) (assay: PI3K-Alpha kinase (PIK3CA) activity, wild-type, Transcreener ADP2 FI assay). Details: PI3K-α (PIK3CA) wild-type, biochemical.
Description: (§1) PI3K-Alpha kinase (PIK3CA) activity, wild-type and H1047R mutant and determining IC50 values for inhibitors
(§2) Recombinant, catalytically active human full length PIK3KA Wild-type and H1047R mutant were purchased as 1:1 complex of N-terminal 6×his tagged p110<(catalytic) and untagged p85<(regulatory subunit) from EMD Millipore Sigma (cat. no. 14-602M and 14-792M, respectively). The enzyme stocks were diluted to 5× stocks in buffer (20 mM HEPES pH 7.4, 100 mM NaCl, 0.5 mM EGTA, 0.01% triton-x-100) just before use. PIP2diC8 (Avanti Polar Lipids Inc., cat. no. 850185) or phosphoinositol-4,5-bisphosphate with phosphoserine (PIP2:PS) membrane (Thermo Fisher Scientific, cat. no. PV5100) was used as lipid substrates. PIP2diC8 lyophilized powder and PIP2:PS (1:19) membrane stock (1 mM in PIP2) were separately dissolved in milliQ water to a concentration of 250 uM and stored in −20° C. 10 mM stocks of compounds were serially diluted (3×) in neat DMSO and stored in a dessicator at room temperature. 5× compound stocks in 25% DMSO were prepared fresh from neat DMSO stocks. Wild-type (WT) and H1047R mutant protein, along with buffer components (except ATP), were incubated with or without compound at 27° C. for 1h. After incubation, the reaction was initiated by the addition of 5 uL of 125 uM ATP. A typical assay mixture (25 uL) comprised 40 mM HEPES buffer, pH 7.4, 25 mM MgCl2, 0.01% v/v triton-X-100, 5% v/v DMSO, 20 mM NaCl, 1-5 nM wt or H1047R, 25 uM ATP, and 50 uM PTP2diC8 or PTP2 in membrane. The reaction was allowed to proceed until about […] (2.5 uM ADP) after which time, 10 uL of reaction mixture was quenched with 25 uL of transcreener reagent (Transcreener ADP2 FI assay kit, BellBrook labs, Cat. No. 3013). The contents were incubated at rt for 1h and fluorescence was measured using a plate reader (Paradigm, Molecular Devices). The same assay was also run at pH 6.0 or 6.4 using MOPS buffer (Fisher BioReagents, CAS 1132-61-2). A calibration curve was generated under identical buffer conditions with varying ADP amounts. Using that, the observed fluorescence was converted to uM ADP. A plot between [ADP] and log[I] yielded the dose-response curves that enabled the calculation of IC50s.

human full length PIK3CA Wild-type (p110α/p85α complex), sequence (P42336 whole entry): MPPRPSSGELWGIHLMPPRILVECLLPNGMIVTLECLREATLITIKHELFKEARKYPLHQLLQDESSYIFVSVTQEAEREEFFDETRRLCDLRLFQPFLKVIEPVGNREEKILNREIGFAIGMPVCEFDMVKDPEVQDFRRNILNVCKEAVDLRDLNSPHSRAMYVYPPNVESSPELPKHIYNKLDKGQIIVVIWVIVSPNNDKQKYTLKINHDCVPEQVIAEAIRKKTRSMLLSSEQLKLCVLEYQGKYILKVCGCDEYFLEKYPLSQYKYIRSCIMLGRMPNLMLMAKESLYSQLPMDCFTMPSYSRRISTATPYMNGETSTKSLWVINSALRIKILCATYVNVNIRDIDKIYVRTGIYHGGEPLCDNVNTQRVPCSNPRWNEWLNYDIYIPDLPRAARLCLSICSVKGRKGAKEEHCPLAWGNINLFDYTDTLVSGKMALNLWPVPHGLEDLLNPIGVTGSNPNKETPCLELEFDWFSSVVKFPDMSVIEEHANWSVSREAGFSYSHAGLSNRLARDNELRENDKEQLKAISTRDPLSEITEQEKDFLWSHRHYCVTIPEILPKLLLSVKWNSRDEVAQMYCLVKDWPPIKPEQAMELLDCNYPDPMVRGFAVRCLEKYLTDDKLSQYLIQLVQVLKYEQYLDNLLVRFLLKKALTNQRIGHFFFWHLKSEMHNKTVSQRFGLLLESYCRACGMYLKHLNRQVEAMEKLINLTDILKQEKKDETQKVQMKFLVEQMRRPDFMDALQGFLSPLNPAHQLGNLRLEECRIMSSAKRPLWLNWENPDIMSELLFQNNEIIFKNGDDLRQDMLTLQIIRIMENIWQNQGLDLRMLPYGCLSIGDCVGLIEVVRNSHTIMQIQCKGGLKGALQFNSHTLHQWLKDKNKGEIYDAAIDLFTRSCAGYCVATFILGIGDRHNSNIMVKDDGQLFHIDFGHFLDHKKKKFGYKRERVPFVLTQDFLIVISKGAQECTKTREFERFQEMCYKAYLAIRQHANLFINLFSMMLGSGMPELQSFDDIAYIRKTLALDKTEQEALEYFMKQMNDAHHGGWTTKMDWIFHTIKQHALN
human full length PIK3CA Wild-type (p110α/p85α complex), sequence (P27986 whole entry partner): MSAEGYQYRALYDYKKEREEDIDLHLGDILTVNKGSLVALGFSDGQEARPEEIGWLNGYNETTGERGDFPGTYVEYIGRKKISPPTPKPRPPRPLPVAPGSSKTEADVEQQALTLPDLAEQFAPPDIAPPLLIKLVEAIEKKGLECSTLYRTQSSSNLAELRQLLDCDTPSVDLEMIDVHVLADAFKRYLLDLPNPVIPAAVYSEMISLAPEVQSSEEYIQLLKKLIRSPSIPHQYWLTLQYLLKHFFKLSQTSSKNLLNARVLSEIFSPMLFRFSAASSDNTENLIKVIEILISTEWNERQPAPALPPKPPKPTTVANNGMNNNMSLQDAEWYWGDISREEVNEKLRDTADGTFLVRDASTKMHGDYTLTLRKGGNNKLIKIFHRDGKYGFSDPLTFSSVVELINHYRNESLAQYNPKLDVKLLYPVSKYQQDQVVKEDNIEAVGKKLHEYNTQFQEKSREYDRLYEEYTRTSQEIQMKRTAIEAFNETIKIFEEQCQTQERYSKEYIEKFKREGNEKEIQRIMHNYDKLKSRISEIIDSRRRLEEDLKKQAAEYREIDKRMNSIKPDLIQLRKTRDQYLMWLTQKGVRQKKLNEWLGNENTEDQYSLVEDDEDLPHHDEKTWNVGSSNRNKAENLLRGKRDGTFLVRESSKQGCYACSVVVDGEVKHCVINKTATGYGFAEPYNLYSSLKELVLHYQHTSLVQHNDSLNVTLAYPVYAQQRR

Compared with `COC12CC(C1)N(c1cc(=O)c3cc(C)cc(C(C)Nc4ccccc4C(=O)O)c3o1)C2` (single isomer, unassigned) [Example 112, 2-[1-[2-(4-Methoxy-2-azabicyclo[2.1.1]hexan-2-yl)-6-methyl-4-oxo-chromen-8-yl]ethylamino]benzoic acid], `Cc1cc(C(C)Nc2ccccc2C(=O)O)c2oc(N3CCCC(C)(C)C3)cc(=O)c2c1` (stereo not drawn) [Example 65, 2-[1-[2-(3,3-Dimethyl-1-piperidyl)-6-methyl-4-oxo-chromen-8-yl]ethylamino]benzoic acid] is higher in IC50: 1000 to 5000 nM for the first, 5000 to 10000 nM for the second.

`Cc1cc(C(C)Nc2ccccc2C(=O)O)c2oc(N3CC4CC(C4)C3)cc(=O)c2c1` (stereo not drawn) [Example 177, 2-[1-[2-(3-Azabicyclo[3.1.1]heptan-3-yl)-6-methyl-4-oxo-chromen-8-yl]ethylamino]benzoic acid 2,2,2-trifluoroacetic acid] and `Cc1cc(C(C)Nc2ccccc2C(=O)O)c2oc(N3CC(C(C)(F)F)C3)cc(=O)c2c1` (stereo not drawn) [Example 189, 2-[1-[2-[3-(1,1-Difluoroethyl)azetidin-l-yl]-6-methyl-4-oxo-chromen-8-yl]ethylamino]benzoic acid 2,2,2-trifluoroacetic acid] fall in the same range of IC50: 1000 to 5000 nM for the first, 1000 to 5000 nM for the second.

`Cc1cc([C@@H](C)Nc2ccccc2C(=O)O)c2oc(N3CCC(C#N)(c4ccccc4)CC3)c(C)c(=O)c2c1` [Example 288, 2-[[(1R)-1-[2-(4-Cyano-4-phenyl-1-piperidyl)-3,6-dimethyl-4-oxo-chromen-8-yl]ethyl]amino]benzoic acid] and `Cc1cc([C@@H](C)Nc2ccccc2C(=O)O)c2oc(N3CC4(CCC4(F)F)C3)c(C)c(=O)c2c1` [Example 289, 2-[[(1R)-1-[2-(7,7-Difluoro-2-azaspiro[3.3]heptan-2-yl)-3,6-dimethyl-4-oxo-chromen-8-yl]ethyl]amino]benzoic acid] fall in the same range of IC50: 500 to 1000 nM for the first, 500 to 1000 nM for the second.

First: Cc1cc(C(C)Nc2ccccc2C(=O)O)c2oc(N3Cc4ccc(F)cc4C3)cc(=O)c2c1 (stereo not drawn) [Example 105, 2-[1-[2-(5-Fluoroisoindolin-2-yl)-6-methyl-4-oxo-chromen-8-yl]ethylamino]benzoic acid]
Second: Cc1cc(C(C)Nc2ccc(Cl)nc2C(=O)O)c2oc(N3Cc4ccc(F)cc4C3)cc(=O)c2c1 (stereo not drawn) [Example 297, 6-Chloro-3-[1-[2-(5-fluoroisoindolin-2-yl)-6-methyl-4-oxo-chromen-8-yl]ethylamino]pyridine-2-carboxylic acid]
The IC50 of the first is higher: 5000 to 10000 nM for the first, 1000 to 5000 nM for the second. The second is the more potent here.

First: Cc1cc(C(C)Nc2ccc(Cl)nc2C(=O)O)c2oc(N3CCC4(CC3)CC4)c(C)c(=O)c2c1 (stereo not drawn) [Example 302, 3-[1-[2-(6-Azaspiro[2.5]octan-6-yl)-3,6-dimethyl-4-oxo-chromen-8-yl]ethylamino]-6-chloro-pyridine-2-carboxylic acid]
Second: CCc1c(N2CCC(C)(C)CC2)oc2c(C(C)Nc3ccccc3C(=O)O)cc(C)cc2c1=O (stereo not drawn) [Example 55, 2-[1-[2-(4,4-dimethyl-1-piperidyl)-3-ethyl-6-methyl-4-oxo-chromen-8-yl]ethylamino]benzoic acid]
The IC50 of the first is lower: 500 to 1000 nM for the first, 1000 to 5000 nM for the second.

`CC(Nc1ccccc1C(=O)O)c1cc(F)cc2c(=O)cc(N3CCC4(CC3)CC4)oc12` (stereo not drawn) [Example 398, 2-[1-[2-(6-Azaspiro[2.5]octan-6-yl)-6-fluoro-4-oxo-chromen-8-yl]ethylamino]benzoic acid 2,2,2-trifluoroacetic acid] and `CC(Nc1ccccc1C(=O)O)c1cc(F)cc2c(=O)cc(N3CCC(F)(F)CC3)oc12` (stereo not drawn) [Example 399] fall in the same range of IC50: 1000 to 5000 nM for the first, 1000 to 5000 nM for the second.

Compared with `Cc1cc(C(C)Nc2ccccc2C(=O)O)c2oc(N3CC4(CCCCC4)C3)cc(=O)c2c1` (stereo not drawn) [Example 88, 2-[1-[2-(2-Azaspiro[3.5]nonan-2-yl)-6-methyl-4-oxo-chromen-8-yl]ethylamino]benzoic acid], `Cc1cc(C(C)Nc2ccccc2C(=O)O)c2oc(N3CCn4cccc4C3)cc(=O)c2c1` (stereo not drawn) [Example 171, 2-[1-[2-(3,4-Dihydro-1H-pyrrolo[1,2-a]pyrazin-2-yl)-6-methyl-4-oxo-chromen-8-yl]ethylamino]benzoic acid] is lower in IC50: 5000 to 10000 nM for the first, 500 to 1000 nM for the second.

`Cc1cc(C(C)Nc2ccc(Cl)nc2C(=O)O)c2oc(N3Cc4ccc5c(c4C3)OCO5)cc(=O)c2c1` (stereo not drawn) [Example 299, 6-Chloro-3-[1-[2-(6,8-dihydro-[1,3]dioxolo[4,5-e]isoindol-7-yl)-6-methyl-4-oxo-chromen-8-yl]ethylamino]pyridine-2-carboxylic acid] and `Cc1cc(C(C)Nc2sc(Cl)nc2C(=O)O)c2oc(N3Cc4ccccc4C3)cc(=O)c2c1` (stereo not drawn) [Example 245, 2-Chloro-5-[1-(2-isoindolin-2-yl-6-methyl-4-oxo-chromen-8-yl)ethylamino]thiazole-4-carboxylic acid 2,2,2-trifluoroacetic acid] fall in the same range of IC50: 500 to 1000 nM for the first, 500 to 1000 nM for the second.

`CC(Nc1ccccc1C(=O)O)c1cc(C(F)(F)F)cc2c(=O)cc(N3CCC(F)(F)CC3)oc12` (stereo not drawn) [Example 396, 2-[1-[2-(4,4-Difluoro-1-piperidyl)-4-oxo-6-(trifluoromethyl)chromen-8-yl]ethylamino]benzoic acid 2,2,2-trifluoroacetic acid] and `Cc1cc(C(C)Nc2ccccc2C(=O)O)c2oc(N3CCc4ccccc4C3)cc(=O)c2c1` (stereo not drawn) [Example 233, 2-[1-[2-(3,4-Dihydro-1H-isoquinolin-2-yl)-6-methyl-4-oxo-chromen-8-yl]ethylamino]benzoic acid] fall in the same range of IC50: 1000 to 5000 nM for the first, 1000 to 5000 nM for the second.

What follows are compounds tested against human full length PIK3CA H1047R mutant (p110α/p85α complex) (Homo sapiens (Human), UniProt P42336, H1047R) (assay: PI3K-Alpha kinase (PIK3CA) activity, H1047R mutant, Transcreener ADP2 FI assay). Details: PI3K-α (PIK3CA) H1047R mutant, biochemical.
human full length PIK3CA H1047R mutant (p110α/p85α complex), sequence (P42336 whole entry H1047R): as the sequence (P42336 whole entry) above, with H1047R counted along it
human full length PIK3CA H1047R mutant (p110α/p85α complex), sequence (P27986 whole entry partner): as the sequence (P27986 whole entry partner) above
Description: as §1, §2

`COC12CC(C1)N(c1cc(=O)c3cc(C)cc(C(C)Nc4ccccc4C(=O)O)c3o1)C2` (single isomer, unassigned) [Example 112, 2-[1-[2-(4-Methoxy-2-azabicyclo[2.1.1]hexan-2-yl)-6-methyl-4-oxo-chromen-8-yl]ethylamino]benzoic acid] and `COC1CCN(c2cc(=O)c3cc(C)cc(C(C)Nc4ccccc4C(=O)O)c3o2)CC1` (stereo not drawn) [Example 373, 2-[1-[2-(4-Methoxy-1-piperidyl)-6-methyl-4-oxo-chromen-8-yl]ethylamino]benzoic acid] fall in the same range of IC50: 500 to 1000 nM for the first, 500 to 1000 nM for the second.

`Cc1cc(C(C)Nc2ccccc2C(=O)O)c2oc(N3CCn4cnnc4C3)cc(=O)c2c1` (stereo not drawn) [Example 163, 2-[1-[2-(6,8-Dihydro-5H-[1,2,4]triazolo[4,3-a]pyrazin-7-yl)-6-methyl-4-oxo-chromen-8-yl]ethylamino]benzoic acid] and `Cc1cc(C(C)Nc2ccccc2C(=O)O)c2oc(N3CCS(=O)(=O)CC3)cc(=O)c2c1` (stereo not drawn) [Example 117, 2-[1-[2-(1,1-Dioxo-1,4-thiazinan-4-yl)-6-methyl-4-oxo-chromen-8-yl]ethylamino]benzoic acid] fall in the same range of IC50: 1000 to 5000 nM for the first, 1000 to 5000 nM for the second.

`Cc1cc(C(C)Nc2ccccc2C(=O)O)c2oc(N3CCCC4(CNC(=O)C4)C3)cc(=O)c2c1` (stereo not drawn) [Example 61, 2-[1-[6-Methyl-4-oxo-2-(3-oxo-2,7-diazaspiro[4.5]decan-7-yl)chromen-8-yl]ethylamino]benzoic acid] and `CNC(=O)C1CCN(c2cc(=O)c3cc(C)cc(C(C)Nc4ccccc4C(=O)O)c3o2)CC1` (stereo not drawn) [Example 371, 2-[1-[6-Methyl-2-[4-(methylcarbamoyl)-1-piperidyl]-4-oxo-chromen-8-yl]ethylamino]benzoic acid] fall in the same range of IC50: 1000 to 5000 nM for the first, 1000 to 5000 nM for the second.

`Cc1cc(C(C)Nc2ccccc2C(=O)O)c2oc(N3CC(N(C)C)C3)cc(=O)c2c1` (stereo not drawn) [Example 68, 2-[1-[2-[3-(Dimethylamino)azetidin-1-yl]-6-methyl-4-oxo-chromen-8-yl]ethylamino]benzoic acid] and `Cc1cc(C(C)Nc2ccccc2C(=O)O)c2oc(N3CC4CCC(C3)O4)cc(=O)c2c1` (stereo not drawn) [Example 82, 2-[1-[6-Methyl-2-(8-oxa-3-azabicyclo[3.2.1]octan-3-yl)-4-oxo-chromen-8-yl]ethylamino]benzoic acid] fall in the same range of IC50: 1000 to 5000 nM for the first, 1000 to 5000 nM for the second.

Compared with `Cc1cc(C(C)Nc2cccc(F)c2C(=O)O)c2oc(N3Cc4ccc(F)cc4C3)cc(=O)c2c1` (stereo not drawn) [Example 238, 2-Fluoro-6-[1-[2-(5-fluoroisoindolin-2-yl)-6-methyl-4-oxo-chromen-8-yl]ethylamino]benzoic acid], `COc1ccc(NC(C)c2cc(C)cc3c(=O)cc(N4Cc5ccccc5C4)oc23)c(C(=O)O)n1` (stereo not drawn) [Example 237, 3-[1-(2-Isoindolin-2-yl-6-methyl-4-oxo-chromen-8-yl)ethylamino]-6-methoxy-pyridine-2-carboxylic acid] is higher in IC50: 1000 to 5000 nM for the first, 5000 to 10000 nM for the second.

`Cc1cc(C(C)Nc2ccccc2C(=O)O)c2oc(NC34CC5CC(CC(CO)(C5)C3)C4)cc(=O)c2c1` (stereo not drawn) [Example 169] and `Cc1cc(C(C)Nc2ccsc2C(=O)O)c2oc(N3CCC(C)(C)CC3)cc(=O)c2c1` (stereo not drawn) [Example 39, 3-[1-[2-(4,4-Dimethyl-1-piperidyl)-6-methyl-4-oxo-chromen-8-yl]ethylamino]thiophene-2-carboxylic acid] fall in the same range of IC50: 1000 to 5000 nM for the first, 1000 to 5000 nM for the second.
